This note sets out measurements from PubChem BioAssay (NCI).

Molecules are shown by their SMILES.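 Five concentrations, 48 hours, 96-well plates. GI50: concentration for 50% inhibition of growth. TGI is the concentration that stops growth completely.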

What all share (experiment): growth of human tumour cells (NCI), 48 h
For assay [1], the system named is MDA-MB-231 breast.
Assay [2] relates to HL-60(TB) leukemia.
Assay [3] deals with OVCAR-5 ovarian.
Assay [4] concerns NCI-H460 lung.
Assay [5] relates to SF-295 CNS.
For assay [6], the system named is HCC-2998 colon.
For assay [7], the system named is OVCAR-4 ovarian.
The test system of assay [8] is HCT-116 colon.
Assay [9] has as its system OVCAR-8 ovarian.
Assay [10] deals with T-47D breast.

As for `COc1cc[nH]c1/C=C1\C(=O)Nc2ccccc21`, the GI50 in [1] was 4.87 µM; in assay [2], 6.58 µM; in [3], 15.3 µM; in [4], 8.85 µM; in assay [5] it was over 25 µM; in assay [6] it was over 20.7 µM. Moreover, the GI50 in [7] was 8.02 µM; in assay [8], 5.66 µM; in assay [9], 14.2 µM; in [10] it was 4.05 µM. The TGI in assay [1], in assay [2], in assay [3], in assay [4], in assay [5] and in assay [6] was over 25 µM in each case. Further, the TGI in [7], in [8], in assay [9] and in assay [10] was over 25 µM in each case.

For `CCCCN=C(N)c1ccc(OCCSCCOc2ccc(C(N)=NCCCC)cc2)cc1`, the GI50 was 16.9 µM in [1]; 5.97 µM in assay [2]; 46.1 µM in [3]; 3.17 µM in [4]; 2.73 µM in [5]; 5.87 µM in assay [6]. The GI50 in [7] was 3.94 µM; in assay [8] it was 4.46 µM; in assay [9], 10.5 µM; in assay [10], 1.83 µM. The TGI in assay [1] was over 100 µM; in assay [2] it was 30 µM; in assay [3], over 100 µM; in assay [4] it was over 100 µM; in assay [5] it was 53.8 µM; in assay [6], over 100 µM. Moreover, the TGI is over 100 µM in [7], over 100 µM in assay [8], over 100 µM in assay [9] and 24.8 µM in assay [10].

For the molecule `COc1ccc(C(=O)COc2cccc(/C=C3\COc4ccc5ccccc5c4C3=O)c2)cc1`, the GI50 in assay [1] was 6.97 µM; in assay [2], 2.07 µM; in [3], 12.9 µM; in assay [4], 6.44 µM; in assay [5] it was 2.87 µM; in [6] it was 23.5 µM. Further, the GI50 in [7] was 6.53 µM; in assay [8], 4.21 µM; in assay [9], 4.5 µM; in assay [10], 3.88 µM. Besides, the TGI in [1] was over 100 µM; in [2], 6.83 µM; in assay [3] it was over 100 µM; in [4] it was over 100 µM; in assay [5], 63.6 µM; in [6] it was over 100 µM. The TGI in [7], in [8], in [9] and in assay [10] was over 100 µM each time.

With `NC(N)=NCCCn1c2c(c3ccccc3c1=O)C(=O)c1ccccc1-2`, the GI50 in assay [1] was 15.8 µM; in assay [2], 23.9 µM; in assay [3], 25.7 µM; in assay [4], 15.3 µM; in [5], 1.66 µM; in assay [6], 3.6 µM. Moreover, the GI50 in assay [7] is 55.6 µM; in assay [8] it was 22.3 µM; in assay [9], 36 µM; in assay [10], 22.9 µM. In addition, the TGI in [1] is 46.7 µM; in assay [2], 81.3 µM; in assay [3], 94.6 µM; in [4], over 100 µM; in [5], 7.72 µM; in [6], 15.8 µM. The TGI in assay [7] is over 100 µM; in assay [8] it was 45.6 µM; in [9], over 100 µM; in [10] it was 66.6 µM.

For `CCOC(=O)c1c(CN2CCN(c3ccccc3)CC2)n(-c2ccccc2)c2cc(Br)c(O)cc12`, the GI50 in [1] is 15.7 µM; in assay [2], 4.12 µM; in [3], 9.98 µM; in assay [4] it was 3.61 µM; in [5], 4.7 µM; in assay [6] it was 15.7 µM. The GI50 in assay [7] is 8.63 µM; in [8], 4.39 µM; in [9], 9.32 µM; in [10], 7.59 µM. Moreover, the TGI in assay [1] is 33.1 µM; in assay [2], over 100 µM; in assay [3], 44.8 µM; in assay [4] it was 21.3 µM; in assay [5], 24.3 µM; in assay [6] it was 32.5 µM. Besides, the TGI in [7] was determined as 24.6 µM; in assay [8], 20.1 µM; in [9], 57 µM; in assay [10], 37.9 µM.

For the molecule `C[N+](C)(C)CC1CCCC(C[N+](C)(C)C)C1=O` (stereo not given), the TGI in assay [1] came out at 3.58 µM; in assay [2], 2.22 µM; in [3], 7.73 µM; in assay [4] it was 39.2 µM; in [5] it was 45.6 µM; in assay [6], 8.63 µM. The TGI is 0.871 µM in assay [7], 2.23 µM in [8], 1.15 µM in [9] and 3.33 µM in assay [10].

Take `COc1cc2oc(-c3ccc(O)cc3)cc(=O)c2c(OC)c1OC`: the TGI in assay [1], in [2], in assay [3], in [4], in assay [5] and in [6] was over 100 µM in each case. The TGI in assay [7], in [8], in [9] and in assay [10] was over 100 µM each time.
